Here are results for eleven compounds from patent publication US9254331B2, “Sulforaphane stabilization” (AURIGA INTERNATIONAL, priority 2010, dated 2016).

The conditions of data set [1]: allyl isothiocyanate sample treated one hour in boiling water, cited from earlier work.
For data set [2] the following is noted: NMR.
Assay in data set [3]: not given
This is another data set of the same source.

How the values of data set [4] were obtained: The stability of sulforaphane was investigated in the following way: a 1% sulforaphane solution is prepared in different media to be tested. The preparation, maintained in a closed container is then thermostated at 25° C., 37° C. or 40° C. Kinetic tracking is carried out by assaying the residual sulforaphane.
The HPLC method used is the following:
Column: Discovery C18 (15 cm×4.8 mm×5 μm)
Mobile Phase: isocratic CH3CN/H2O (50/50)
Injection (10 μL) after dilution of the parent solution in the mobile phase in order to obtain a sulforaphane concentration of 1 mg/mL.
External standard: naphthalene.
1% of sulforaphane were placed per mL of solution containing diphospholipides such as for example Phosal®. The preparation, maintained in a closed container is then thermostated at 40° C. Kinetic tracking is carried out by assaying the residual sulforaphane:
1% m/m sulforaphane solutions were prepared in each anhydrous ester mentioned above. Kinetic tracking of the degradation was then carried out at 40° C. by using naphthalene as an external standard.
Kinetic tracking of the degradation was then carried out at 40° C. by using naphthalene, as an external standard.
This is another data set of the same source.

The conditions of data set [5]: after seven months, cited from earlier work.
Data set [6] in a line: Stabilization of isothiocyanates with ascorbic acid upon storage. Particulars: similar study with sulforaphane. The text has this: Further, it is also known how to stabilize allyl isothiocyanate with ascorbic acid.
The conditions of data set [7]: mixture of isoamyl salicylate, capric/caprylic triglyceride and silicone derivative, 2% sulforaphane.
For data set [8] the following is noted: cited from earlier work.
Setting [9] is: closed flask, non-inertized, exposed to light.

Where only a bound is given, the exact number is not on record here.

In the case of `C1=CSSSC1` [4H-1,2,3-trithiin], in data set [1], the “Concentration at pH 2.7” value is recorded as “Traces”, the “Concentration at pH 7.0” value is listed as “Traces” and the “Concentration at pH 9.0” value is reported as “Traces”.
Consider `C=CC1SC=CCS1` (centres unmarked) [2-vinyl-4-1,3-dithiin], for which, in data set [1], the “Concentration at pH 2.7” value is on record as “Traces”, the “Concentration at pH 7.0” value is reported as “Traces” and the “Concentration at pH 9.0” value is “Traces”.
As to `C=CCSC#N` [allyl thiocyanate], in data set [1], the “Concentration at pH 2.7” value was 9.21 mg/g, the “Concentration at pH 7.0” value is given as 13.84 mg/g and the “Concentration at pH 9.0” value is recorded as 12.32 mg/g.
`C=CCN=C=S` [allyl isothiocyanate, reference compound]: in data set [1], the “Concentration at pH 2.7” value is on record as 379.06 mg/g, the “Concentration at pH 7.0” value was 290.27 mg/g and the “Concentration at pH 9.0” value is recorded as 270.46 mg/g.
Consider `C[S+]([O-])CCCCN=C=S` (centres unmarked) [sulforaphane], for which, in [2] (24 hour reflux), the “degradation on heating with reflux in chloroform” value is reported as “did not either show any degradation”. In addition, in data set [2] (setting [9]), the “stability in solution in DMSO” value is recorded as “stable for at least one week” and the “stability in solution in chloroform” value is on record as “stable for at least one week”. Further, the “solubility in argan oil” value (argan oil) is recorded as approximately 2%. Moreover, the “solubility in eglantine rose oil” value (eglantine rose oil) is given as approximately 3.5%. The “solubility in anhydrous esters” value (ester 610, methyl salicylate, isoamyl salicylate (Example 1)) is > 6 % (m/m). The “solubility in jojoba oil” value (jojoba oil) was “about 0.5 % (m/m)”. Also, where the note is “mixture of isoamyl salicylate, capric/caprylic triglyceride and silicone derivative”, the “solubilization in cosmetic formulation” value was found to be 2%. Besides, where the note is “triethylpropane triostearate, coco caprylate-caprate (Example 4)”, the “solubility in pure anhydrous esters” value is on record as > 6 % (m/m). Besides, in [3] (thermostated injector at 250° C.), the “product degraded into 3-butenylisothiocyanate on injection in gas chromatography” value came to 80%. Also, in [3] (without passing through the injector), the “degradation when injected directly onto the column” value is reported as “no degradation peak is observed”. The “degradation in 2-octyl-dodecanol and dimethyl isosorbide” value in data set [4] (1% (m/m) in 2-octyl-dodecanol (Nerol 20) and dimethyl isosorbide) was “degraded over time”. Further, in data set [4] (1% (m/m) in jojoba, argan and eglantine rose oils), the “degradation in vegetable oils” value is listed as “too substantial to allow commercial use”. Further, in [4] (1% (m/m) in triethylpropane triostearate and coco caprylate-caprate CCC, 40° C.), the “degradation in isostearate and coco caprylate-caprate” value was “negligible”. Also, the “degradation in phospholipid medium” value in [4] (1% in solution containing phospholipids (Phosal), 40° C., in less than 3 days) is “more than 40%”. For the same compound, the “degradation in anhydrous esters” value in [4] (1% m/m in ester 610, methyl salicylate, isoamyl salicylate, 40° C.) is on record as “negligible”. This compound also returned a loss of sulforaphane in [4] (1% solution in water, 40° C., after 2 days) of 10%. Besides, the “remaining fraction of initial content” value in [4] (1% solution in water, 40° C., after 10 days) was found to be 50%. Besides, the “degradation in cosmetic formulation” value in data set [4] (2% (m/m) in isoamyl salicylate, capric/caprylic triglyceride and silicone derivative, 6 months at 40° C.) is listed as 3-5%. Moreover, the “degradation in galenic formulation” value in data set [4] (2% sulforaphane, 2 anhydrous esters and methylpolysiloxane A or B) was “no degradation is observed”. Also, in data set [4] (antioxidant hydro-alcoholic medium, 25° C.), the “time after which residual sulforaphane begins to fall” value stood at 1 days. Besides, the “remaining fraction of initial amount” value in data set [4] (antioxidant hydro-alcoholic medium, 37° C., in less than 7 days) is listed as “no more than 50%”. The “degradation trend in ethanol” value in [4] (ethanol, 40° C., early days, coupling compound with ethanol formed) is reported as “very dearly marked”. For the same compound, in data set [4] (tocopheryl acetate), the “degradation in tocopheryl acetate” value is “no significant degradation”. Further, the “degradation with less suitable cyclodextrins” value in [5] (less suitable, not very stabilizing cyclodextrins) is recorded as “up to 50%”. Also, the “degradation with α-cyclodextrins” value in data set [5] (α-cyclodextrins) is “less than 10%”. For the same compound, the “stabilization of sulforaphane by ascorbic acid” value in [6] is “not able to stabilize”. Besides, the “penetration into the skin” value in data set [7] is listed as “good penetration into the skin”. The “degradation under accelerated versus normal ageing conditions” value in [8] (50% of acacia gum, 40° C./75% humidity versus 25° C./60% humidity) is on record as “twice more significant”. The “degradation with 70% gum arabic at 25° C.” value in data set [8] (70% gum arabic, 25° C., first week, then relatively stable) is “slight degradation”. Further, the “degradation with 70% gum arabic” value in data set [8] (70% gum arabic, after one month, 40° C.) is reported as not above 30%. Further, the “stabilization with 50% of acacia gum” value in data set [8] (sample having 50% of acacia gum) is given as “does not exhibit any particular stabilization”.
As to `CC1CSSSS1` (centres unmarked) [5-methyl-1,2,3,4-tetrathiane], in data set [1], the “Concentration at pH 2.7” value is recorded as 0.01 mg/g, the “Concentration at pH 7.0” value was 0.02 mg/g and the “Concentration at pH 9.0” value is given as 0.03 mg/g.
In the case of `C=CCSCC=C` [diallyl sulfide], in data set [1], the “Concentration at pH 2.7” value was 13.09 mg/g, the “Concentration at pH 7.0” value is 22.16 mg/g and the “Concentration at pH 9.0” value was 26.40 mg/g.
Regarding `C1=CSSC1` [3H-1,2-dithiolene], in data set [1], the “Concentration at pH 2.7” value is listed as 0.13 mg/g, the “Concentration at pH 7.0” value is listed as 0.17 mg/g and the “Concentration at pH 9.0” value is recorded as 0.19 mg/g.
Take `C=CCSSSCC=C` [diallyl trisulfide]: in data set [1], the “Concentration at pH 2.7” value is reported as 10.31 mg/g, the “Concentration at pH 7.0” value was 13.63 mg/g and the “Concentration at pH 9.0” value was 14.11 mg/g.
In the case of `C=CCSSCC=C` [diallyl disulfide], in data set [1], the “Concentration at pH 2.7” value was 8.09 mg/g, the “Concentration at pH 7.0” value is 11.47 mg/g and the “Concentration at pH 9.0” value was 12.71 mg/g.
For `C=CCSSSSCC=C` [diallyl tetrasulfide], in [1], the “Concentration at pH 2.7” value is “Traces”, the “Concentration at pH 7.0” value is listed as “Traces” and the “Concentration at pH 9.0” value was “Traces”.
